Results as given in PubChem BioAssay AID1919005 (Molecular Pharmacology Branch, DTP, NCI, 2023).
“And” between values parts separate entries of the source, which are not always exact repeats. Equal entries are not always repeated.

Test system: 855422-203-R-J1-PDC complex spheroid growth
Assay: Anticancer human tumor 855422-203-R-J1-PDC patient-derived bladder carcinoma cell line growth inhibition [AhR]
Details: for viability, T/C: stronger effect = lower value; active means viability on the fitted dose curve at most 10% of control; inactive means the rest
Excerpt: Multicellular complex tumor spheroid response to aryl hydrocarbon receptor antagonists in combination with a variety of drugs and investigational agents in selected tumor cell lines
The current study was undertaken to assess response to aryl hydrocarbon receptor antagonists in combination with standard-of-care drugs and investigational agents in solid tumor complex spheroid models. Complex spheroids include a stromal component modeled by human endothelial cells (HUVEC) and fibroblasts modeled by human mesenchymal stem cells (MSCs). The concentration ranges selected for each drug and investigational agent were based upon clinically achievable concentrations if the clinical Cmax of the agent was known.
Compounds. The drugs and investigational agents: BAY 2416964 (NSC825713), GNF351 (NSC835774), CH-223191 (NSC835775), CPI-455 (NSC825282), aza-TdCyd (NSC777586), decitabine (NSC127716), belinostat (NSC758774), entinostat (NSC756642), pevonedistat (NSC761192), tazemetostat (NSC777109), talazoparib (NSC765396), olaparib (NSC753686), selinexor (NSC780203), nedisertib (M3814, NSC802822), bortezomib (NSC756655), venetoclax (NSC766270), doxorubicin (NSC123127), elimusertib (BAY189344, NSC800525), ceralasertib (AZD6738, NSC777638), TAK-243 (NSC785004), alisertib (NSC759677), etoposide (NSC141540), topotecan (NSC609699), eribulin (NSC707389), gemcitabine (NSC613327), carboplatin (NSC241240), cisplatin (NSC119875), and SN-38 (NSC673596) were obtained from the National Cancer Institute (NCI) Developmental Therapeutics Program Chemical Repository (32). The FDA-approved anticancer drug set is available from the Developmental Therapeutics Program at https://dtp.cancer.gov/organization/dscb/obtaining/available plates.htm. […] The stock solutions were prepared in dimethyl sulfoxide (DMSO, Sigma-Aldrich, St. Louis, MO, cat. D2650), except for the platinum compounds which were prepared in saline (Quality Biological, Gaithersburg, MD, cat. 114-055-101), at 800-fold the tested concentration and stored at -70 degrees C prior to their use. All drugs and investigational agents were tested over a range starting from a high concentration at or near the clinical Cmax and decreasing in half-log increments. If the clinical Cmax for an agent had not been determined, the highest concentration tested was 10 microM (Table 1).
Cell Culture. All cells were maintained in an incubator at 37 degrees C and 5% CO2 with 95% humidity. The PDC lines were cultured according to standard operating procedures established by the NCI PDMR (https://pdmr.cancer.gov). Briefly, all PDCs were thawed and cultured in Matrigel-coated flasks prepared with a working solution of 1X Ham's F-12 nutrient mix, without supplementation (Invitrogen, Waltham, MA, cat. 11765054), 100 U/mL penicillin-streptomycin (Invitrogen, cat. 15140122), and 2.5% Matrigel (Corning Inc., Corning, NY, cat. 354248) for the first three passages. All PDCs were cultured in complete DMEM/F-12 media containing advanced DMEM/F-12 (Invitrogen, cat. 12634028), 4.9% defined fetal bovine serum, heat inactivated (HyClone Laboratories Inc., Logan, UT, cat. SH30070.03HI), 389 ng/mL hydrocortisone (Sigma-Aldrich, cat. H4001), 9.7 ng/mL human EGF recombinant protein (Invitrogen, cat. PHG0313), 23.4 microg/mL adenine (Sigma-Aldrich, cat. A2786), 97.3 U/mL penicillin-streptomycin (Invitrogen, cat. 15140122), 1.9 mM L-glutamine (Invitrogen, cat. 25030081), and 9.7 microM Y-27632 dihydrochloride (Tocris Bioscience, Bristol, United Kingdom, cat. 1254). The PDCs were cultured in complete DMEM/F12 media without 10 microM Y-27632 dihydrochloride for at least two passages prior to the screen. The established cell lines NCI-H1341 and […] were cultured in DMEM/F-12, HEPES (Invitrogen, cat. 11330032), 5% defined fetal bovine serum (HyClone Laboratories Inc., cat. SH30070.03), ITS premix universal culture supplement [insulin (5 microg/mL), transferrin (5 microg/mL), and selenious acid (5 ng/mL)] […]

[1] = curve of first compound, second compound 0.1 µM
[2] = curve of first compound, second compound 0.316 µM
[3] = curve of first compound, second compound 1 µM
[4] = curve of first compound, second compound 3.16 µM
[5] = curve of first compound, second compound 10 µM
[6] = second compound 0.1 µM, first compound 0.000316 µM
[7] = second compound 0.1 µM, first compound 0.001 µM
[8] = second compound 0.1 µM, first compound 0.00316 µM
[9] = second compound 0.1 µM, first compound 0.01 µM
[10] = second compound 0.1 µM, first compound 0.0316 µM
[11] = second compound 0.1 µM, first compound 0.1 µM
[12] = second compound 0.316 µM, first compound 0.000316 µM
[13] = second compound 0.316 µM, first compound 0.001 µM
[14] = second compound 0.316 µM, first compound 0.00316 µM
[15] = second compound 0.316 µM, first compound 0.01 µM
[16] = second compound 0.316 µM, first compound 0.0316 µM
[17] = second compound 0.316 µM, first compound 0.1 µM
[18] = second compound 1 µM, first compound 0.000316 µM
[19] = second compound 1 µM, first compound 0.001 µM
[20] = second compound 1 µM, first compound 0.00316 µM
[21] = second compound 1 µM, first compound 0.01 µM
[22] = second compound 1 µM, first compound 0.0316 µM
[23] = second compound 1 µM, first compound 0.1 µM
[24] = second compound 3.16 µM, first compound 0.000316 µM
[25] = second compound 3.16 µM, first compound 0.001 µM
[26] = second compound 3.16 µM, first compound 0.00316 µM
[27] = second compound 3.16 µM, first compound 0.01 µM
[28] = second compound 3.16 µM, first compound 0.0316 µM
[29] = second compound 3.16 µM, first compound 0.1 µM
[30] = second compound 10 µM, first compound 0.000316 µM
[31] = second compound 10 µM, first compound 0.001 µM
[32] = second compound 10 µM, first compound 0.00316 µM
[33] = second compound 10 µM, first compound 0.01 µM
[34] = second compound 10 µM, first compound 0.0316 µM
[35] = second compound 10 µM, first compound 0.1 µM
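Further: spheroids exposed to agents for seven days before readout.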
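Wherever viability, T/C is given: percent of DMSO vehicle control luminescence viability.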

Cn1ncnc1C1c2n[nH]c(=O)c3cc(F)cc(c23)NC1c1ccc(F)cc1 (configuration not stated) + Cc1ccccc1N=Nc1ccc(NC(=O)c2ccnn2C)c(C)c1
> 100 nM: IC50 [1] | IC50 [2] | IC50 [3] | IC50 [4] | IC50 [5]
inactive: viability, T/C [6] 102% | viability, T/C [7] 96% | viability, T/C [8] 102% | viability, T/C [9] 100% | viability, T/C [10] 93.8% | viability, T/C [11] 100% | viability, T/C [12] 106% | viability, T/C [13] 96.4% | viability, T/C [14] 95.7% | viability, T/C [15] 96.1% | viability, T/C [16] 92.6% | viability, T/C [17] 90% | viability, T/C [18] 104% | viability, T/C [19] 105% | viability, T/C [20] 97.7% | viability, T/C [21] 103% | viability, T/C [22] 98.2% | viability, T/C [23] 96.3% | viability, T/C [24] 88.4% | viability, T/C [25] 97.3% | viability, T/C [26] 93.9% | viability, T/C [27] 90.8% | viability, T/C [28] 87.4% | viability, T/C [29] 91.8% | viability, T/C [30] 80.1% | viability, T/C [31] 78.5% | viability, T/C [32] 82.5% | viability, T/C [33] 81.6% | viability, T/C [34] 76.2% | viability, T/C [35] 77%

Cn1ncnc1C1c2n[nH]c(=O)c3cc(F)cc(c23)NC1c1ccc(F)cc1 (configuration not stated) + Cc1cncc(-c2nc(NCCc3c[nH]c4ccccc34)c3ncn(C(C)C)c3n2)c1
inactive: viability, T/C [6] 84.1% | viability, T/C [7] 85.3% | viability, T/C [8] 87.6% | viability, T/C [9] 95.9% | viability, T/C [10] 87.8% | viability, T/C [11] 88.2% | viability, T/C [12] 91.7% | viability, T/C [13] 80.8% | viability, T/C [14] 73.1% | viability, T/C [15] 88.5% | viability, T/C [16] 90.3% | viability, T/C [17] 81.6% | viability, T/C [18] 81.3% | viability, T/C [19] 86.2% | viability, T/C [20] 76.4% | viability, T/C [21] 78.3% | viability, T/C [22] 77.2% | viability, T/C [23] 84% | viability, T/C [24] 67.6% | viability, T/C [25] 74.4% | viability, T/C [26] 71.4% | viability, T/C [27] 56.6% | viability, T/C [28] 76.9% | viability, T/C [29] 75.2% | viability, T/C [30] 30.7% | viability, T/C [31] 29.6% | viability, T/C [32] 21.5% | viability, T/C [33] 5.12% | viability, T/C [34] 23.6% | viability, T/C [35] 26.1%
< 0.316 nM: IC50 [5]
> 100 nM: IC50 [1] | IC50 [2] | IC50 [3] | IC50 [4]

CC1COCCN1c1cc(C2(S(C)(=N)=O)CC2)nc(-c2ccnc3[nH]ccc23)n1 (configuration not stated)
inactive: viability, T/C (compound 0.0316 µM) 93.4% and 101% and 98.8% | viability, T/C (compound 0.1 µM) 106% and 102% and 113% | viability, T/C (compound 0.316 µM) 99.9% and 101% and 88.2% | viability, T/C (compound 1 µM) 108% and 106% and 115% | viability, T/C (compound 3.16 µM) 125% and 124% and 123% | viability, T/C (compound 10 µM) 24.9% and 56.9% and 59.1%
7020 nM and > 10000 nM: IC50 (curve of compound)

O=C(C=Cc1cccc(S(=O)(=O)Nc2ccccc2)c1)NO + Cc1cncc(-c2nc(NCCc3c[nH]c4ccccc34)c3ncn(C(C)C)c3n2)c1
active: viability, T/C (second compound 0.1 µM, first compound 10 µM) 0.91% | viability, T/C (second compound 0.316 µM, first compound 10 µM) 0.69% | viability, T/C (second compound 1 µM, first compound 10 µM) 0.75% | viability, T/C (second compound 3.16 µM, first compound 3.16 µM) 12.2% | viability, T/C (second compound 3.16 µM, first compound 10 µM) 0.58% | viability, T/C (second compound 10 µM, first compound 1 µM) 3.43% | viability, T/C (second compound 10 µM, first compound 3.16 µM) 1.25% | viability, T/C (second compound 10 µM, first compound 10 µM) 0.31%
494 nM: IC50 [4]
< 31.6 nM: IC50 [5]
1140 nM: IC50 [3]
1390 nM: IC50 [2]
inactive: viability, T/C [10] 81.7% | viability, T/C [11] 86.4% | viability, T/C (second compound 0.1 µM, first compound 0.316 µM) 85.2% | viability, T/C (second compound 0.1 µM, first compound 1 µM) 62.5% | viability, T/C (second compound 0.1 µM, first compound 3.16 µM) 23.9% | viability, T/C [16] 84.8% | viability, T/C [17] 82.9% | viability, T/C (second compound 0.316 µM, first compound 0.316 µM) 81.5% | viability, T/C (second compound 0.316 µM, first compound 1 µM) 59.9% | viability, T/C (second compound 0.316 µM, first compound 3.16 µM) 23.5% | viability, T/C [22] 82.6% | viability, T/C [23] 84.4% | viability, T/C (second compound 1 µM, first compound 0.316 µM) 72% | viability, T/C (second compound 1 µM, first compound 1 µM) 53.3% | viability, T/C (second compound 1 µM, first compound 3.16 µM) 23.9% | viability, T/C [28] 73.5% | viability, T/C [29] 82.4% | viability, T/C (second compound 3.16 µM, first compound 0.316 µM) 66% | viability, T/C (second compound 3.16 µM, first compound 1 µM) 23.5% | viability, T/C [34] 29.9% | viability, T/C [35] 36.2% | viability, T/C (second compound 10 µM, first compound 0.316 µM) 8.93%
1480 nM: IC50 [1]
